Experimental data from US20240299292A1, “STABLE SEMI-SOLID CHEWABLE GEL COMPOSITIONS AND METHODS OF MAKING AND USING THEREOF” (Seattle Gummy Company, priority 2021, published 2024).

Legend:
[1] = ITC measurements; cited from earlier work
[2] = ITC measurements; cited from earlier work; remark: listed apart in the source
[3] = ITC association constant of cetirizine-β-cyclodextrin complex; format: binding; details: beta vs alpha and gamma cyclodextrin
Excerpt: Either the phenyl group or the 4-chlorophenyl group fit inside the ring structure. The inside cavity of cylcodextrins is largely hydrophobic which is favorable for aromatic systems that are also hydrophobic. The formation of the chelate structure is […] favorable due to electrostatic interactions of the pi system of the aromatic moiety with in the hydrophobic cavity and electronic interaction with the hydrogen atoms and […]. It is these electronic interactions between these systems of the cyclodextrin and the pi system that gives the favorable heat of formation.

[4] = ITC measurements; cited from earlier work; remark: listed apart in the source

O=C(O)COCCN1CCN(C(c2ccccc2)c2ccc(Cl)cc2)CC1 (stereo not shown) [cetirizine]
association constant, cetirizine-γ-cyclodextrin complex [1]: 1200 ± 50 M⁻¹
association constant K(a), cetirizine-β-cyclodextrin complex [2]: 5641 ± 358 M⁻¹
formation constant of beta cyclodextrin complex relative to alpha and gamma cyclodextrin [3]: nearly four times
association constant K(a), cetirizine-α-cyclodextrin complex [4]: 1434 ± 60 M⁻¹
